Data published in patent publication US20030072816A1, “Agents improving skin barrier function” (priority 2000, published 2003).

System: Human epidermal keratinocytes
Test: Formation of CE in cultured keratinocytes (amount of CE by visual observation or count under a microscope)
Type: cell-based
Set-up: key: −: No CE formation; ++: CE formation in an amount equal to that in positive control (growth medium) is observed; +++: Clearly more CE formation than in positive control (growth medium) is observed
Details: test substance 3% in MEM containing 0.1% bovine serum albumin, cultured 1 week
Method: Human epidermal keratinocytes were cultured according to the method of Rheinwald & Green (Cell 6: 331-344, 1975). The cells were cultured in a growth medium (DMEM-Ham's F12 (3:1) containing 10% fetal bovine serum, 0.5 μg/ml hydrocortisone, 5 μg/ml insulin, 10^−10 M cholera toxin, 10 ng/ml epidermal growth factor and 1.8×10^−4 M adenine) up to confluent, the medium was replaced with a medium (MEM containing 0.1% bovine serum albumin) containing a test substance, and culturing was continued for further 1 week. After completion of the culturing, Tris-hydrochloric acid buffer containing dithiothreitol and sodium dodecyl sulfate was added, and the mixture was heated at 100° C. for 10 minutes. The insoluble substance was collected by centrifugation at 4,000 g for 10 minutes. The eluent addition and heating were repeated and thereby soluble components were thoroughly removed. The thus obtained insoluble substance was referred to as CE. The amount of the obtained CE was evaluated by visual observation. Otherwise, the number was counted under a microscope using a cytometer.

## CC(C)CCCC(C)CCCC(C)CCCCC(C)CCCC(C)CCCC(C)C (stereo not shown) [Squalane]
  CE formation-accelerating effect: −
